These results are taken from the supplement of paper PMC11781733.

Details in all cases: exposure time: 15 min to 3 h acute
The subject of assay [1] is Dugesia japonica. Put plainly: crawl-out incidence (% planarians); higher = higher incidence or increase relative to vehicle control. As for the experimental part: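 Adult asexual Dugesia japonica planarians (1 per well, 48-well plate, n=24 over technical triplicates) were exposed acutely (15 min to 3 h) to each compound (0.5% DMSO or water vehicle) and screened on a robotic platform for crawl-out, stickiness, body shape, phototaxis, noxious-heat scrunching and locomotion endpoints. Binary endpoints are incidence rate x100. Continuous endpoints are the median response normalised to the plate vehicle median, as % change or difference. Negative incidences after vehicle subtraction were set to 0.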

Assay [2] concerns Dugesia japonica. Briefly: speed in dark vs vehicle (% change vs vehicle); higher = higher incidence or increase relative to vehicle control. As for the experimental part: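 Adult asexual Dugesia japonica planarians (1 per well, 48-well plate, n=24 over technical triplicates) were exposed acutely (15 min to 3 h) to each compound (0.5% DMSO or water vehicle) and screened on a robotic platform for crawl-out, stickiness, body shape, phototaxis, noxious-heat scrunching and locomotion endpoints. Binary endpoints are incidence rate x100 normalised to in-plate vehicle controls. Continuous endpoints are the median response normalised to the plate vehicle median, as % change or difference. Negative incidences after vehicle subtraction were set to 0.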

The test system of assay [3] is Dugesia japonica. Put plainly: C-shape incidence (% planarians (vehicle-normalised)); higher = higher incidence or increase relative to vehicle control. In outline:
(§1)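 Body shape incidence, for a given shape or for any abnormal shape, is reported ×100 and normalised to vehicle controls on the same plate, with negative values set to 0. D. japonica planarians fasted for 5–7 days were placed one per well in 200 μL in sealed 48-well plates and exposed to at least 5 concentrations. Within 15 minutes–3 hours of exposure, a researcher scored contraction, C-shape, corkscrew and hyperkinesis manually and blind, excluding worms that crawled out.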

The test system of assay [4] is Dugesia japonica. Briefly: corkscrew incidence (% planarians (vehicle-normalised)); higher = higher incidence or increase relative to vehicle control. In outline:
as §1

Assay [5] relates to Dugesia japonica. Put plainly: stickiness incidence (% planarians (vehicle-normalised)); higher = higher incidence or increase relative to vehicle control. In outline:
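Worms that crawled out of their wells were excluded from this binary stickiness endpoint, scored in fasted Dugesia japonica planarians and normalised to vehicle incidence on the same plate. Each planarian was kept alone in a sealed 48-well plate well in 200 μL of solution, with 0.5% DMSO or water as vehicle, and tested 15 min–3 h after exposure to half- or quarter-log concentration series. Technical triplicates were pooled (n = 24), negative values became 0, and values were multiplied by 100.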

In assay [6] the test system is Dugesia japonica. Briefly: hyperkinesis incidence (% planarians (vehicle-normalised)); higher = higher incidence or increase relative to vehicle control. In outline:
as §1

In assay [7] the test system is Dugesia japonica. Briefly: speed first 30 s blue light vs vehicle (% change vs vehicle); higher = higher incidence or increase relative to vehicle control. The essentials: (§2)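 Crawling speed in the dark or during blue-light periods was measured by automated tracking of intact, fasted Dugesia japonica, one per well of a 48-well plate in 200 μL. Worms were tested 15 min to 3 h after exposure in 0.5% DMSO or water vehicle. Eight worms per concentration per plate were run in technical triplicate (n = 24). Each worm was normalised to the plate's vehicle median, and the value is the median percent change; worms that crawled out were excluded.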

Assay [8] relates to Dugesia japonica. Put plainly: speed second 30 s blue light vs vehicle (% change vs vehicle); higher = higher incidence or increase relative to vehicle control. The essentials: as §2
Assay [9] has as its system Dugesia japonica. Briefly: pharynx extrusion incidence (% planarians (vehicle-normalised)); higher = higher incidence or increase relative to vehicle control. The essentials:
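Fasted, intact Dugesia japonica were scored manually and blind for pharynx extrusion as a body-shape category, with the incidence normalised to in-plate vehicle controls. Testing took place 15 min to 3 h after exposure, one worm per well in 200 μL of 0.5% DMSO or water vehicle, with eight worms per concentration per plate in triplicate (n = 24). Worms that crawled out were excluded, and negative values were set to 0.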

Assay [10] deals with Dugesia japonica. Put plainly: loss of phototaxis incidence (% planarians (vehicle-normalised)); higher = higher incidence or increase relative to vehicle control. The essentials: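 For each concentration, eight intact, fasted Dugesia japonica per plate were placed singly in wells of a 48-well plate in 200 μL and run in technical triplicate (n = 24). Testing took place 15 min to 3 h after exposure in 0.5% DMSO or water vehicle. Loss of phototaxis was recorded as present or absent by automated object tracking and expressed as an incidence rate normalised to in-plate vehicle controls. For this rate, ×100 was applied, negatives were set to 0, and worms that crawled out were excluded.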

Assay [11] concerns Dugesia japonica. Put plainly: total locomotor bursts minus vehicle (bursts difference vs vehicle); higher = higher incidence or increase relative to vehicle control. The essentials: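 The value is the median normalised response for total locomotor bursts, an unstimulated behaviour measured by image-based object tracking in fasted Dugesia japonica planarians. Animals sat singly in the wells of a sealed 48-well plate in 200 μL solution and were tested 15 min–3 h after exposure to half- or quarter-log concentration series in 0.5% DMSO or water. Each planarian's value was corrected by subtracting the plate vehicle-control median, with no ×100 scaling, and crawled-out worms were left out.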

For assay [12], the system named is Dugesia japonica. Briefly: noxious heat displacement strength vs vehicle (% change vs vehicle); higher = higher incidence or increase relative to vehicle control. The essentials:
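Each intact, fasted Dugesia japonica was tested alone in a well of a 48-well plate in 200 μL, 15 min to 3 h after exposure in 0.5% DMSO or water vehicle. Eight worms per concentration per plate were used in technical triplicate (n = 24). Displacement strength under noxious heat came from the scrunching assay with automated object tracking and is given as the median percent change against the plate's vehicle median, excluding worms that crawled out.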

In assay [13] the test system is Dugesia japonica. Briefly: contracted body shape incidence (% planarians (vehicle-normalised)); higher = higher incidence or increase relative to vehicle control. In outline: as §1
The test system of assay [14] is Dugesia japonica. Put plainly: anxiety (time in outer well region) vs vehicle (% change vs vehicle); higher = higher incidence or increase relative to vehicle control. In outline: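 Dugesia japonica planarians fasted for 5–7 days were placed one per well in 200 μL in sealed 48-well plates and exposed to at least 5 concentrations, with n = 24 per concentration in technical triplicates, then screened within 15 minutes–3 hours. Object tracking in MATLAB or Python measured the time each worm spent in the outer portion of the well, and worms that crawled out were excluded. Each response was divided by, or reduced by, the plate vehicle median and multiplied by 100. The reported value is the median of these normalized responses.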

The test system of assay [15] is Dugesia japonica. Put plainly: any abnormal body shape incidence (% planarians (vehicle-normalised)); higher = higher incidence or increase relative to vehicle control. In outline: as §1
Assay [16] relates to Dugesia japonica. Briefly: resting fraction in dark vs vehicle (difference in fraction x100 vs vehicle); higher = higher incidence or increase relative to vehicle control. The essentials:
(§3)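 In technical triplicate, eight intact, fasted Dugesia japonica per concentration per plate were tracked automatically to score the resting fraction in the dark or under blue light. Each worm had its own well of a 48-well plate containing 200 μL and was tested 15 min to 3 h after exposure in 0.5% DMSO or water vehicle. Reported values are medians of each worm's difference from the plate's vehicle median multiplied by 100, leaving out worms that crawled out.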

The test system of assay [17] is Dugesia japonica. Put plainly: loss of heat-induced scrunching incidence (% planarians (vehicle-normalised)); higher = higher incidence or increase relative to vehicle control. The essentials: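 Planarians of the species D. japonica, fasted for 5–7 days, were placed singly in wells of sealed 48-well plates in 200 μL and exposed to at least 5 concentrations, 24 worms per concentration in technical triplicates. Scrunching in response to a noxious heat stimulus was tested within 15 minutes–3 hours, and any worm that crawled out was excluded. The reported figure is the incidence of non-scrunching worms, normalised to vehicle controls on the same plate. This incidence is given ×100, with negatives set to 0.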

The subject of assay [18] is Dugesia japonica. Briefly: resting fraction in blue light vs vehicle (difference in fraction x100 vs vehicle); higher = higher incidence or increase relative to vehicle control. The essentials:
as §3

In the assay with Dugesia japonica [1], `Cc1ncc2n1-c1ccc(Cl)cc1C(c1ccccc1F)=NC2` [midazolam] (10 µM) gave a crawl-out incidence of 0. In addition, the speed in dark in the assay on Dugesia japonica [2] is -4.66. The same molecule registered a C-shape incidence in the assay with Dugesia japonica [3] of 0. The molecule also returned a corkscrew incidence in the assay on Dugesia japonica [4] of 0. Further, in the assay with Dugesia japonica [5], the stickiness incidence was ≤ 0. For the same molecule, the hyperkinesis incidence in the assay on Dugesia japonica [6] was 8.33. Also, the “speed first 30 s blue light” value with Dugesia japonica [7] turned out to be 12.7. Besides, the “speed second 30 s blue light” value with Dugesia japonica [8] amounted to 6.88. In the assay with Dugesia japonica [9], this molecule showed a pharynx extrusion incidence of 0. The “loss of phototaxis incidence” value in the assay on Dugesia japonica [10] was ≤ 0. For the same molecule, the “total locomotor bursts minus vehicle” value in the assay with Dugesia japonica [11] is -1.5. For the same molecule, the “noxious heat displacement strength” value with Dugesia japonica [12] is -18.8. Moreover, the “contracted body shape incidence” value with Dugesia japonica [13] was 0. Moreover, in the assay with Dugesia japonica [14], the anxiety was -4.77. For the same molecule, the “any abnormal body shape incidence” value with Dugesia japonica [15] turned out to be 8.33. For the same molecule, the “resting fraction in dark” value in the assay on Dugesia japonica [16] turned out to be 0.667. In the assay with Dugesia japonica [17], the “loss of heat-induced scrunching incidence” value is ≤ 0. The “resting fraction in blue light” value with Dugesia japonica [18] was -0.5.
`Cc1cc2c(s1)Nc1ccccc1N=C2N1CCN(C)CC1` [olanzapine] (3.16 µM) showed a crawl-out incidence in the assay on Dugesia japonica [1] of 4.17. In addition, the speed in dark in the assay on Dugesia japonica [2] is -69. In the assay with Dugesia japonica [3], this molecule registered a C-shape incidence of 8.33. In the assay on Dugesia japonica [4], this molecule returned a corkscrew incidence of 0. Further, the stickiness incidence with Dugesia japonica [5] was ≤ 0. Moreover, the hyperkinesis incidence in the assay with Dugesia japonica [6] came out at 54.2. Also, the “speed first 30 s blue light” value in the assay with Dugesia japonica [7] is -79.2. In addition, the “speed second 30 s blue light” value in the assay with Dugesia japonica [8] is -75.2. The pharynx extrusion incidence with Dugesia japonica [9] worked out at 0. In addition, the “loss of phototaxis incidence” value in the assay on Dugesia japonica [10] was ≤ 0. In addition, the “total locomotor bursts minus vehicle” value with Dugesia japonica [11] was determined as 41.2. Also, the “noxious heat displacement strength” value in the assay with Dugesia japonica [12] is -37.1. Moreover, the “contracted body shape incidence” value in the assay on Dugesia japonica [13] was 0. Moreover, in the assay on Dugesia japonica [14], the anxiety was -4.66. For the same molecule, the “any abnormal body shape incidence” value in the assay with Dugesia japonica [15] turned out to be 58.3. In the assay on Dugesia japonica [16], the “resting fraction in dark” value came to 51.2. Besides, the “loss of heat-induced scrunching incidence” value with Dugesia japonica [17] amounted to 45.8. Besides, the “resting fraction in blue light” value with Dugesia japonica [18] was found to be 34.
`CN1CCN(CCCN2c3ccccc3Sc3ccc(Cl)cc32)CC1` [prochloroperazine] (1 µM) gave a crawl-out incidence with Dugesia japonica [1] of 4.17. Also, in the assay on Dugesia japonica [2], the speed in dark is -31. This molecule registered a C-shape incidence with Dugesia japonica [3] of 0. The corkscrew incidence with Dugesia japonica [4] was determined as 0. For the same molecule, in the assay on Dugesia japonica [5], the stickiness incidence is ≤ 0. Further, the hyperkinesis incidence in the assay on Dugesia japonica [6] stood at 4.35. Further, the “speed first 30 s blue light” value with Dugesia japonica [7] was -22.6. For the same molecule, the “speed second 30 s blue light” value in the assay on Dugesia japonica [8] is -13.4. The molecule also yielded a pharynx extrusion incidence in the assay with Dugesia japonica [9] of 0. In addition, the “loss of phototaxis incidence” value with Dugesia japonica [10] stood at 4.35. Also, in the assay on Dugesia japonica [11], the “total locomotor bursts minus vehicle” value came to 10.5. In addition, in the assay on Dugesia japonica [12], the “noxious heat displacement strength” value was -10.7. Further, the “contracted body shape incidence” value with Dugesia japonica [13] was determined as 0. The same molecule showed an anxiety in the assay with Dugesia japonica [14] of 9.41. In addition, the “any abnormal body shape incidence” value in the assay with Dugesia japonica [15] turned out to be 4.35. Besides, in the assay with Dugesia japonica [16], the “resting fraction in dark” value is 7.43. The “loss of heat-induced scrunching incidence” value with Dugesia japonica [17] came out at 26.1. For the same molecule, the “resting fraction in blue light” value with Dugesia japonica [18] amounted to 5.37.
